For assay [1], the target named is T1, μ-opioid receptor (Homo sapiens (Human), UniProt P35372). Nature of the assay: μ-opioid receptor radioligand ([3H]-diprenorphine) dose-displacement binding assay. Particulars: binding affinity, read-out: Opioid Receptor Ki (nM) μ. How it is done:
μ-Opioid Receptor Binding Assay Procedures: Radioligand dose-displacement binding assays for μ-opioid receptors used 0.3 nM [^3H]-diprenorphine (Perkin Elmer, Shelton, Conn.), with […] membrane protein/well in a final volume of 500 μl binding buffer (10 mM MgCl2, 1 mM EDTA, 5% DMSO, 50 mM HEPES, pH 7.4). Reactions were carried out in the absence or presence of increasing concentrations of unlabeled naloxone. All reactions were conducted in 96-deep well polypropylene plates for 2 hours at room temperature. Binding reactions were terminated by rapid filtration onto 96-well Unifilter GF/C filter plates (Perkin Elmer, Shelton, Conn.), presoaked in 0.5% polyethylenimine using a 96-well tissue harvester (Perkin Elmer, Shelton, Conn.) followed by performing three filtration washes with 500 μl of ice-cold binding buffer. Filter plates were subsequently dried at 50° C. for 2-3 hours. BetaScint scintillation cocktail (Perkin Elmer, Shelton, Conn.) was added (50 μl/well), and plates were counted using a Packard Top-Count for 1 min/well. The data were analyzed using the one-site competition curve fitting functions in GraphPad PRISM™ v. 3.0 or higher (San Diego, Calif.), or an in-house function for one-site competition curve-fitting.
In TABLE 1, binding affinity of certain Compounds of the Invention to the μ-, δ- and κ-opioid receptors was determined as described above.

For assay [2], the target named is T1, μ-opioid receptor. Nature of the assay: μ-opioid receptor [35S]GTPγS functional assay, HEK-293 or CHO cells. The format is biochemical. To be noted: for Emax: relative to DAMGO, HEK-293 or CHO cells. How it is done: μ-Opioid Receptor Functional Assay Procedures: [^35S]GTPγS functional assays were conducted using freshly thawed μ-receptor membranes prepared in-house from a cell line expressing recombinant μ opioid receptor in a HEK-293, CHO or U-2 OS cell background, or purchased from a commercial source (Perkin Elmer, Shelton, Conn.; or DiscovRx, Fremont, Calif.). Assay reactions were prepared by sequentially adding the following reagents to binding buffer (100 mM NaCl, 10 mM MgCl2, 20 mM HEPES, pH 7.4) on ice (final concentrations indicated): membrane protein (0.026 mg/mL), saponin ([…]), GDP ([…]) and [^35S]GTPγS (0.20 nM; Perkin Elmer, Shelton, Conn.). The prepared membrane solution (190 μl/well) was transferred to 96-shallow well polypropylene plates containing 10 μl of 20× concentrated stock solutions of the agonist [D-Ala^2, N-methyl-Phe^4 Gly-ol^5]-enkephalin (DAMGO) prepared in dimethyl sulfoxide (DMSO). Plates were incubated for 30 min at about 25° C. with shaking. Reactions were terminated by rapid filtration onto 96-well Unifilter GF/B filter plates (Perkin Elmer, Shelton, Conn.) using a 96-well tissue harvester (Perkin Elmer, Shelton, Conn.) followed by three filtration washes with 200 μl of ice-cold wash buffer (10 mM NaH2PO4, 10 mM Na2HPO4, pH 7.4). Filter plates were subsequently dried at 50° C. for 2-3 hours. BetaScint scintillation cocktail (Perkin Elmer, Shelton, Conn.) was added (50 μl/well) and plates were counted using a Packard Top-Count for 1 min/well. Data were analyzed using the sigmoidal dose-response curve fitting functions in GraphPad PRISM v. 3.0, or an in-house function for non-linear, sigmoidal dose-response curve-fitting.
μ-Opioid Receptor Functional Data: μ GTP EC50 is the concentration of a compound providing 50% of the maximal response for the compound at a μ-opioid receptor.
μ GTP Emax (%) is the maximal effect elicited by a compound relative to the effect elicited by DAMGO, a standard μ agonist. Generally, the μ GTP Emax (%) value measures the efficacy of a compound to treat or prevent pain or other Conditions.
In TABLE 2, activity response of certain Compounds of the Invention to the μ-, δ- and κ-opioid receptors was determined as described above for functional assays using HEK-293 or CHO cells.
A general note: GTPγS is a poorly hydrolysed GTP analogue; its binding reports G protein activation.

The term Ki denotes the equilibrium dissociation constant of an inhibitor or competing ligand from its target. What is called EC50 is the concentration needed to bring the measured effect to its halfway point. In general, Emax refers to the size of the effect at its maximum, as opposed to the concentration needed. Take `O=C1NC[C@@]2(CC[C@@]3(O)[C@H]4Cc5ccc(O)cc5[C@@]3(CCN4CC3CC3)C2)N1` [Compound 5, (4bR,4′S,8aS,9R)-11-(cyclopropylmethyl)-3,8a-dihydroxy-5,7,8,8a,9,10-hexahydrospiro[9,4b-(epiminoethano)phenanthrene-6,4′-imidazolidin]-2′-one]: at μ-opioid receptor [1], the Ki worked out at 3.55 ± 0.77 nM. For the same compound, at μ-opioid receptor [2], the concentration for a half-maximal effect (EC50) is greater than 20000 nM and the Emax was -1%.
For `O=C1NC(=O)[C@@]2(CC[C@@]3(O)[C@H]4Cc5ccc(O)cc5[C@@]3(CCN4CC3CC3)C2)N1` [Compound 3, (4bR,4′S,8aS,9R)-11-(cyclopropylmethyl)-3,8a-dihydroxy-5,7,8,8a,9,10-hexahydrospiro[9,4b-(epiminoethano)phenanthrene-6,4′-imidazolidine]-2′,5′-dione] the same measures were 15.9 ± 3.02 nM, greater than 20000 nM and 10.6 ± 7.11%.

Source of the values: patent US8987287B2, “Spirocyclic morphinans and their use” (Purdue Pharma L.P., priority 2012, dated 2015).
